One experiment has as its system antibody 1H10. The experiment can be described thus: Direct binding ELISA of antibody 1H10 to solid-phase neoglycoproteins. Details: species or system mouse. The following applies: 100 ng neoglycoprotein per well, antibody 10 μg/ml. The procedure:
Synthetic glycoproteins were coated onto microtiter plates by filling each well with 100 ng of the neoglycoprotein in 100 μl of 0.15 M sodium chloride, 0.01 M sodium phosphate, 0.1% sodium azide, pH 7.4, (PBS-azide) overnight at 4° C. Standard enzyme-linked immunoassays (ELISA) were then performed on the solid phase carbohydrate structures using the appropriate antibody diluted to 10 μg/ml.

A further experiment concerns the target T1, ELAM-1 (Homo sapiens, UniProt P16581).
T1 construct: expressed in transfected cells; host or cells: murine pre-B cell line L1-2, vector pMRB101 derivative (pMRB107), hCMV promoter
T1 sequence (P16581 22-610): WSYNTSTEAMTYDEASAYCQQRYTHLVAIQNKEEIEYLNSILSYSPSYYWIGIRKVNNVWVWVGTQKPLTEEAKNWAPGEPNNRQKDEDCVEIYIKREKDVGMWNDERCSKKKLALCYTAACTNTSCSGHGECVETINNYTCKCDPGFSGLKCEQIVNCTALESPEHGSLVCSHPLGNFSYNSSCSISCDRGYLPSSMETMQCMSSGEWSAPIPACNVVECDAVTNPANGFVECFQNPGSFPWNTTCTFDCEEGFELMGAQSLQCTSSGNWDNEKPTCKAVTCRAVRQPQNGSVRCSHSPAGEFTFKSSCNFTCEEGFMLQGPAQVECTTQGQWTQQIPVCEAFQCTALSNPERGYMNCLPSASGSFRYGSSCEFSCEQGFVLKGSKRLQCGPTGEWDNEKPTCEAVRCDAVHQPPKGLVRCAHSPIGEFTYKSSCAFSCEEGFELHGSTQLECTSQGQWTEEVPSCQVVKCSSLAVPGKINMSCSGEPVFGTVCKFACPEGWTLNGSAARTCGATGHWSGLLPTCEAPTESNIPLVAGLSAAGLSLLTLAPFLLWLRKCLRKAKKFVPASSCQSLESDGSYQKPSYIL
The experiment can be described thus: Cell binding assay: L1-2^ELAM-1 cells on glass slides coated with synthetic glycoconjugates. Conditions: 25 min RT, 50 rpm. In kind it is cell-based. How it is done:
L1-2/pMRB107 cells (L1-2^ELAM-1) were prepared by transfecting the ELAM-1 gene into the murine pre-B cell line L1-2 (Gallatin et al. (1983) Nature 35 304:30-34). A cDNA clone encoding ELAM-1 was obtained from a CDNA library made from activated human umbilical vein endothelial cell cultures by polymerase chain reaction amplification. The ELAM-1 gene was inserted downstream of the hCMV promoter in pMRB101 [a derivative of EE6 which contains the E. coli gpt gene (Mulligan and Berg (1981) Proc. Nat'l. Acad. Sci. USA 78:2072; Stephens and Corbett (1989) N.A.R. 17:7110)]. DNA was introduced into L1-2 cells by electroporation and the cells selected for resistance to mycophenolic acid. A population of cells staining brightly for ELAM-1 were selected by FACS and cloned by limiting dilution. These cells are ELAM-1^hi LFA-1^mod CD45^hi CD44^neg LECAM-1^neg, differing from the parent cell line or control vector transfectants only in their expression of ELAM-1. L1-2/pMRB101 (L1-2^vector) cells are a similarly transformed derivative of L1-2 transfected with pMRB101 and lacking ELAM-1 expression.
One hundred microliter samples of each synthetic glycoconjugate in phosphate buffered saline (PBS), pH 7.2, were absorbed onto glass wells of 8-chamber slides (LabTek) for two hours at RT. For some experiments glass slides were pre-coated with rabbit anti-human serum albumin (Sigma) at 200 μg/ml overnight at 4° C. and washed with PBS prior to the addition of the glycoconjugate. After blocking with 5% NBS/ 10 mM HEPES/Dulbecco's Modified Eagles Medium (DMEM), pH 7.0 (CM), L1-2^ELAM-1 or L1-2^vector cells were applied to each well (1.5×10^6/0.15 ml in CM). After a 25 minute incubation at RT on a rotating shaker at 50 rpm, the tops of the wells were removed and the slides washed 3× in DMEM and then fixed by incubation in 1.5% glutaral-dehyde (Kodak)/DMEM. Three to six 100× fields were counted for each data point and the average and standard error are reported. Data reported are from representative experiments which were performed 2-5 times with similar results.

The next experiment deals with T2, mouse LECAM-1 (Mus musculus, UniProt P18337).
T2 construct: Mouse lymphocytes isolated from mesenteric lymph nodes were also tested; endogenous in cells; host or cells: primary mouse lymphocytes from mesenteric lymph nodes
T2 sequence (P18337 39-372): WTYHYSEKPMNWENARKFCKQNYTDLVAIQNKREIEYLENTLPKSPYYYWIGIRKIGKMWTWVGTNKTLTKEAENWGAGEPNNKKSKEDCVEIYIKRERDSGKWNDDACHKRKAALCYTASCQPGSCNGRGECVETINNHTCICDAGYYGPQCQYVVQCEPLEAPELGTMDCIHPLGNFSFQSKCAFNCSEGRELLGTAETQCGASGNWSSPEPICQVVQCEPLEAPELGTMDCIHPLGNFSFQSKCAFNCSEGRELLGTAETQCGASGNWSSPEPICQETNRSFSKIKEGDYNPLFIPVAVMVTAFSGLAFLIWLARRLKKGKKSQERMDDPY
Kind of experiment: Cell binding assay: mouse lymphocytes on coated synthetic glycoconjugates. It is filed as cell-based. Conditions: mesenteric lymph node lymphocytes, 3×10^6 cells in 0.15 ml. The procedure: Cell binding assays. One hundred microliter samples of each synthetic glycoconjugate in phosphate buffered saline (PBS), pH7.2, were absorbed onto glass wells of 8-chamber slides (LabTek) for two hours at RT. After blocking with 5% NBS, 10 mM HEPES, Dulbecco's Modified Eagles Medium (DMEM), pH7.0 (CM), L1-2^LECAM-1, L1-2^vector or L1-2^ELAM-1 cells were applied to each well (1.5×10^6 cells in 0.15 ml CM). Mouse lymphocytes isolated from mesenteric lymph nodes were also tested at 3×10^6 cells in 0.15 ml. In some cases, cells were preincubated with monoclonal antibody MEL-14 (Gallatin et al., 1983, supra) at 150 μg/ml/10^7 cells and washed prior to testing. After a 25 minute incubation at RT on a rotating shaker at 50 rpm, the tops of the wells were removed and the slides washed 3× in DMEM and then fixed by incubation in 1.5% glutaraldehyde (Kodak) in DMEM. Three to six 100× fields were counted for each data point and the average and standard error are reported. Data reported are from representative experiments which were performed 2-5 times with similar results.

As for “Neu5Acα2-3Galβ1-3GlcNAcβ1-3Galβ1-4(Glc) [LSTa]”, the “direct binding of antibody 1H10 to neoglycoprotein” value in the experiment on antibody 1H10 is given as “weakly crossreacts”. For the same substance, the “binding of L1-2^ELAM-1 cells to coated glycoconjugate” value (“binding of L1-2^ELAM-1 cells” for short) at ELAM-1 is given as “did not bind”. Moreover, the “binding of mouse lymphocytes to coated neoglycoconjugate” value on mouse LECAM-1 was “not”.
For the substance “Neu5Acα2-6Galβ1-4GlcNAcβ1-3Galβ1-4(Glc) [LSTc]”, the “binding of L1-2^ELAM-1 cells” value on ELAM-1 is recorded as “did not bind”.
For the substance NeuNAc α2-3Gal βl-4 (Glc) [3′SL], the “binding of L1-2^ELAM-1 cells” value on ELAM-1 is given as “did not bind”. Besides, at mouse LECAM-1, the “binding of mouse lymphocytes to coated neoglycoconjugate” value is recorded as “not”.
The corresponding values for NeuNAc α2-6Gal βl-4 (Glc) [6′SL] are “did not bind” and “not”.

These data come from patent US6391857B1, “Methods and compositions for endothelial binding” (Stanford University, priority 1990, dated 2002).
